# Results: PMC5054527, “Mechanism of high affinity inhibition of the human urate transporter URAT1” (Scientific Reports, 2016)
# Residue numbers refer to the chain shown, from its start. Like-named read-outs stand apart in the source and are kept apart here.
# How the values were obtained:
# Assay in all cases: URAT1 uric acid transport activity assay
# Type in all cases: cell-based
# [1] = target: T1, r-N35S/Y365F rURAT1 double point mutant (Rattus norvegicus, UniProt Q3ZAV1, N35S/Y365F)
# T1 construct: expressed in transfected cells; host or cells: HEK-293T
# T1 sequence (Q3ZAV1 1-553 N35S/Y365F): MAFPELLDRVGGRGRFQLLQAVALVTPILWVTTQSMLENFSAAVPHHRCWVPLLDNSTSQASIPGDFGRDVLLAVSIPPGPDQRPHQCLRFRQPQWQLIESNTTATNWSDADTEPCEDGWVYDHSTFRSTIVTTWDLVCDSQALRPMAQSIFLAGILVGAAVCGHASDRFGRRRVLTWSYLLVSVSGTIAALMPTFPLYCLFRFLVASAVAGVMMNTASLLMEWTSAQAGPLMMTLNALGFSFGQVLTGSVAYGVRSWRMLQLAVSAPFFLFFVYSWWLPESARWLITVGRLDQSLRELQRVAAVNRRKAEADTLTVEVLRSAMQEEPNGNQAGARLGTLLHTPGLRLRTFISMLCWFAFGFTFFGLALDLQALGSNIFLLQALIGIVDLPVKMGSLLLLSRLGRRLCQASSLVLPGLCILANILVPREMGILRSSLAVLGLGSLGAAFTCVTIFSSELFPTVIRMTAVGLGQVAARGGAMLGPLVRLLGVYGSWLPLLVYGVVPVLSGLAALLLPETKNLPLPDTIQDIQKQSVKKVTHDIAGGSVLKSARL
# Source text: (§1) hURAT1 (GenBank BC053348.1) and rURAT1 (NCBI NM_001034943.1) genes were purchased from Origene Technologies, Inc. and subcloned into pCMV6/neo using NotI, creating pCMV6/neo-hURAT1 and pCMV6/neo-rURAT1. Mutants were produced by polymerase chain reaction (PCR) or site-directed mutagenesis using the QuikChange Lightning Multi Site-Directed Mutagenesis Kit (Agilent Technologies). […] Detailed methods are provided in Supplementary Methods, and primers are listed in Supplementary Table 1. […] Residues in rURAT1 and hOAT1 that correspond to the residues in hURAT1 were identified from aligned protein sequences (Supplementary Fig. 1)[50].
# (§2) DNA (10 μg) was mixed with 30 μl of DreamFect Gold (Boca Scientific) in 2 ml OptiMem (Life Technologies). After 20 minutes, 18 ml of media containing 2 × 10^7 cells in suspension was added and mixed, and 200 μl per well were plated onto white clear-bottomed poly-D-lysine coated 96-well plates (BD Biosciences). The cells were assayed the following day.
# (§3) Compounds were serially diluted into assay buffer and added to the cells for 5 minutes prior to addition of radiolabelled uric acid substrate. URAT1-expressing cells were incubated with 100 μM ^14C-uric acid for 10 minutes. […] Each treatment was measured in triplicate.
# (§4) Unlabelled uric acid was prepared at a 20 mM stock just prior to use in a solution containing 20 mM dibasic potassium phosphate and 20 mM potassium hydroxide.
# (§5) Nonlinear regression analyses using GraphPad Prism software were used to calculate the potency of URAT1 inhibitors (IC50 values) from log (inhibitor) versus response - variable slope (four parameters) equations. Statistical significance was assessed using Student’s unpaired t-tests.
# [2] = target: T2, r-V22M rURAT1 point mutant (Rattus norvegicus, UniProt Q3ZAV1, V22M)
# T2 sequence (Q3ZAV1 1-553 V22M): T1 sequence (Q3ZAV1 1-553 N35S/Y365F) with V22M, S35N, F365Y
# Source text: as §1, §2, §3, §4, §5
# rat URAT1 (rURAT1 WT) = target: T3, rat URAT1 (rURAT1 WT) (Rattus norvegicus, UniProt Q3ZAV1)
# T3 sequence (Q3ZAV1 1-553): T1 sequence (Q3ZAV1 1-553 N35S/Y365F) with S35N, F365Y
# Source text: as §1, §2, §3, §4, §5
# [3] = r-N35S/Y365F, MES pH 5.5, 100 μM 14C-uric acid, read-out: IC50 (uric acid transport)
# [4] = rURAT1 WT, MES pH 5.5, 100 μM 14C-uric acid, read-out: IC50 (uric acid transport)
structure (smiles),measurement,setting,value
CCc1oc2ccccc2c1C(=O)c1cc(Br)c(O)c(Br)c1 [benzbromarone],IC50,[1],2.2 ± 0.29 µM
same,IC50,[2],20 ± 2.7 µM
same,IC50,rat URAT1 (rURAT1 WT),26 µM
"O=C(O)CSc1nnc(Br)n1-c1ccc(C2CC2)c2ccccc12 [lesinurad, 2-((5-bromo-4-(4-cyclopropylnaphthalen-1-yl)-4H-1,2,4-triazol-3-yl)thio)acetic acid]",IC50,[1]; [3],1.6 ± 0.03 µM
same,IC50,"[2]; r-V22M, MES pH 5.5, 100 μM 14C-uric acid, read-out: IC50 (uric acid transport)",74 ± 8.9 µM
same,IC50,rat URAT1 (rURAT1 WT); [4],81 µM
O=C1C(CC[S+]([O-])c2ccccc2)C(=O)N(c2ccccc2)N1c1ccccc1 (stereo not drawn) [sulfinpyrazone],IC50,"[1]; r-N35S/Y365F, HEPES pH 7.3, 100 μM 14C-uric acid, read-out: IC50 (uric acid transport)",142 ± 15 µM
same,IC50,"[2]; r-V22M, HEPES pH 7.3, 100 μM 14C-uric acid, read-out: IC50 (uric acid transport)",762 ± 177 µM
same,IC50,"rat URAT1 (rURAT1 WT); rURAT1 WT, HEPES pH 7.3, 100 μM 14C-uric acid, read-out: IC50 (uric acid transport)",680 µM
O=c1[nH]c(=O)c2[nH]c(=O)[nH]c2[nH]1 [uric acid],fold increased affinity of r-N35S/Y365F compared to rURAT1,[1]; from IC50 values,5.4 fold
same,IC50,[1]; [3],484 µM
same,IC50,rat URAT1 (rURAT1 WT); [4],2630 µM
